Legend:
[1] = tested on: dehydrogenase domain of csNOX5; assay: NADPH depletion assay on csNOX5 dehydrogenase domain; type: biochemical, Cylindrospermum stagnale; details: 10 μM inhibitor; 1 μM purified protein, 250 μM NADPH
Protocol: A series of derivatives were synthesized and tested at 10 μM against the dehydrogenase domain of NOX5 from Cylindrospermum stagnale (C. stagnale, CsNOX5; Figure 2B).
The NADPH depletion assay for IC50 determinations was performed as described[10] with modifications for covalent inhibitors, which require longer incubation times. Briefly, the catalytic activity was measured by monitoring the absorbance at 340 nm with a Cary 100 UV–vis spectrophotometer (Varian). A 1 μM portion of purified protein was added in a final volume of 130 μL of 50 mM HEPES pH 7.5 and supplemented with 300 μM FAD. Inhibitors were added at varying concentrations and incubated for 1 h at 25 °C.

human NOX1 = target: T1, human NOX1 (Homo sapiens, UniProt Q9Y5S8); assay: Human NOX1 isolated membranes, Amplex Red/horseradish peroxidase coupled assay; type: biochemical; details: membrane-embedded; 40 μM NADPH; read-out: IC50 on human NOXs, NOX1 (AMPLEX RED)
T1 construct: expressed in transfected cells; host or cells: HEK293 F cells, transient transfection (pEG BacMam vector); isolated membranes; Cytosolic proteins made in E. coli
T1 sequence (Q9Y5S8 1-564): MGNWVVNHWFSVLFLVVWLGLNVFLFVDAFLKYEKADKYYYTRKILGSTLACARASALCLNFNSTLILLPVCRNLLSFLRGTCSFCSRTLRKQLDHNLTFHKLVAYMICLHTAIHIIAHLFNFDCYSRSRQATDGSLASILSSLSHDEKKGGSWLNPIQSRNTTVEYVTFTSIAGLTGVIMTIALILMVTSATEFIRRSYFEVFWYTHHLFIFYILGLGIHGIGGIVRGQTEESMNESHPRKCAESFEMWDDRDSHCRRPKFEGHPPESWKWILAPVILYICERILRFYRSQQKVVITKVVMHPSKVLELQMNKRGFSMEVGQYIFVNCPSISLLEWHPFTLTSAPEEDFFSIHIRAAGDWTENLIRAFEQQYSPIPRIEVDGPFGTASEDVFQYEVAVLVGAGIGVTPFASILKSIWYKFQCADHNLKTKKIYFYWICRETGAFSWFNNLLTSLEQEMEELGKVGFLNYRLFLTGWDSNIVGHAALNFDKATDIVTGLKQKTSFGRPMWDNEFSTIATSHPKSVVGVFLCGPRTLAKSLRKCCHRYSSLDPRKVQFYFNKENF
T1 sequence (P13498 1-195 partner): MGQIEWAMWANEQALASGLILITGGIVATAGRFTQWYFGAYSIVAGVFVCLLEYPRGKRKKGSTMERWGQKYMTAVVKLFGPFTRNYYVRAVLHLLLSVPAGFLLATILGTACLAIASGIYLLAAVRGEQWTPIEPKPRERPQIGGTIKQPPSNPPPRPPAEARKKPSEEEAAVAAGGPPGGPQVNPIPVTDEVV
Protocol: (§1) Activity assays for IC50 determinations were performed as previously described[40],[42] with modifications for covalent inhibitors. […] The estimated final protein concentrations based on the heme’s absorbance (ε414 nm = 131,000 M^–1 cm^–1) were 10–20 nM. Compounds were incubated for 1 h at 25 °C at varying concentrations, and reactions were initiated with 40 μM NADPH. Fluorescence was measured using a ClarioStar plate reader (excitation 572 nm/emission 583 nm).

human NOX4 = target: T2, human NOX4 (Homo sapiens, UniProt Q9NPH5); assay: Human NOX4 isolated membranes, Amplex Red/horseradish peroxidase coupled assay; type: biochemical; details: membrane-embedded; 40 μM NADPH; read-out: IC50 on human NOXs, NOX4 (AMPLEX RED)
T2 construct: expressed in transfected cells; host or cells: HEK293 F cells, transient transfection (pTT22 and pYD7 vectors); isolated membranes
T2 sequence (Q9NPH5 1-578): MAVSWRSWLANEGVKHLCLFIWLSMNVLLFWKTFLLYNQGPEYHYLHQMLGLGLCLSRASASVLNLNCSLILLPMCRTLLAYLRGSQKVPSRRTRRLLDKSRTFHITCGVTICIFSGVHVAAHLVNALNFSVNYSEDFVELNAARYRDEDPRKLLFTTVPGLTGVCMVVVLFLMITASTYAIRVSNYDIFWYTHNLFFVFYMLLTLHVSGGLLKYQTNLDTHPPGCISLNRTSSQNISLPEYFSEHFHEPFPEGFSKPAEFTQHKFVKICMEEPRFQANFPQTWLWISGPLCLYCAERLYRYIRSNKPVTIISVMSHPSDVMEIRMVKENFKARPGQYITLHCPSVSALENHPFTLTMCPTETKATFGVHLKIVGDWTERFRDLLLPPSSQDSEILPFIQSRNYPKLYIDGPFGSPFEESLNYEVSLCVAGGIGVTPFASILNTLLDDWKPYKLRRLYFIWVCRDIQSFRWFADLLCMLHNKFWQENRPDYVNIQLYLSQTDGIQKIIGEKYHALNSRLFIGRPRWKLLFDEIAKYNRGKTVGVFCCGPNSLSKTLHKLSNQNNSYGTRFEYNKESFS
T2 sequence (P13498 1-195 partner): T1 sequence (P13498 1-195 partner)
Protocol: as §1

human NOX5 = target: T3, human NOX5 (Homo sapiens, UniProt Q96PH1); assay: Human NOX5 isolated membranes, Amplex Red/horseradish peroxidase coupled assay; type: biochemical; details: membrane-embedded; 40 μM NADPH; read-out: IC50 on human NOXs, NOX5 (AMPLEX RED)
T3 construct: expressed in transfected cells; host or cells: HEK293 F cells, transient transfection (pEG BacMam vector); isolated membranes
T3 sequence (Q96PH1 1-719 isoform Q96PH1-4): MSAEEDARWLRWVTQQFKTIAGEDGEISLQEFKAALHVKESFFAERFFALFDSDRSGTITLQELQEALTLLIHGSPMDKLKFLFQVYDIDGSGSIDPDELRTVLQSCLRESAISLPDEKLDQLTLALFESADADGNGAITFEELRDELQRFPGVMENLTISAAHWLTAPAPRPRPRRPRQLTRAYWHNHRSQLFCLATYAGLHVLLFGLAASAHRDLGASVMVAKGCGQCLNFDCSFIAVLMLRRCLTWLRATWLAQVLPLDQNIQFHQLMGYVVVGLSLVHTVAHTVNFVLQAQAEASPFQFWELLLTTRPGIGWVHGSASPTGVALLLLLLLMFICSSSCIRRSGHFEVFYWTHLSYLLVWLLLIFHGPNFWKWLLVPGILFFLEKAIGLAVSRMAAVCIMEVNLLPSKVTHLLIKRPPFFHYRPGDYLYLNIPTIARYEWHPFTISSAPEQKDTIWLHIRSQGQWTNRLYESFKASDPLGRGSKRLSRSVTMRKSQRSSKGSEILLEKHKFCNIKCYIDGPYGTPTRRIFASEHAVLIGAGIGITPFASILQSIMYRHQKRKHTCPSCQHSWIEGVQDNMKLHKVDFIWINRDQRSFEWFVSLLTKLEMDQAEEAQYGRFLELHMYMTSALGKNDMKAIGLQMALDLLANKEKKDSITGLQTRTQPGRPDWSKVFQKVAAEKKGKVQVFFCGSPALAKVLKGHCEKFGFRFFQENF
Protocol: as §1

NOX2 = NOX2 (Homo sapiens, UniProt P04839); assay: Human NOX2 isolated membranes, MCLA assay; type: biochemical; set-up: NOX2 was expressed as native protein in X-CGD PLB-985 cells transduced with the RD114 pseudotyped MFGS-NOX2 vector; expressed in transfected cells; host or cells: X-CGD PLB-985 cells transduced with MFGS-NOX2; isolated membranes; Cytosolic proteins made in E. coli; details: membrane-embedded; 240 μM NADPH; read-out: IC50 on human NOXs, NOX2 (MCLA)
Protocol: IC50 determinations were performed as described, with the same aforementioned modifications for covalent inhibition. Briefly, 20 μg of NOX2-p22^phox membranes was added to a reaction mix with a 65 mM sodium phosphate buffer (pH 7.0), 0.5 μM FAD, 130 μM LiDS, 160 nM p67^phox, p47^phox, Rac1 Q61L, and 1 μM MCLA or 200 μM bovine cytochrome c. The estimated final protein concentration based on the heme’s absorbance was 60 nM. Compounds were incubated for 1 h at 25 °C, at varying concentrations. The reaction started by adding 240 μM NADPH, and measurements were taken by using a GloMax plate reader (Promega; MCLA) or a Cary 100 UV–vis spectrophotometer (Varian; cytochrome c).

csNOX5 dehydrogenase = assay: Intact protein mass spectrometry of csNOX5 dehydrogenase; type: binding, Cylindrospermum stagnale; details: intact protein ESI-qTOF-HRMS
Protocol: Approximately 1 mg mL^-1 protein was incubated with 300 μM FAD and 1 mM 9a at 4 °C for 1 h. A negative control reaction was performed by adding an equal volume of DMSO. Protein was denatured by adding 1% (v/v) formic acid. Chromatographic separation and mass spectrometry analysis were carried out as previously reported.[10] Analyses were carried out by ESI-qTOF-HRMS on an […] qTOF system (Sciex) embedding a Twin Sprayer ESI probe and coupled with an ExcionLC system (Sciex) controlled by SciexOS software v. 3.0.0. The injection volume was 10 μL (10 μg), and chromatographic separation was carried out with a bioZen WidePore C4 column (a 100 mm length, a 2.1 mm diameter, and a 2.6 μm particle size; Phenomenex).

SMILES | % INHIBITION csNOX5 DEHYDROGENASE DOMAIN [1] [%] | IC50 (human NOX1) [µM] | IC50 (human NOX4) [µM] | IC50 (human NOX5) [µM] | IC50 (NOX2) [µM] | covalent binding to csNOX5 dehydrogenase active-site cysteine (csNOX5 dehydrogenase)
CS(=O)(=O)Oc1ncnc2c1nnn2Cc1ccccc1 [Compound 2] | 15.1 ± 2.5 | – | – | – | – | –
C=CC(=O)N1CCN(c2ncnc3c2nnn3Cc2ccccc2)CC1 [Compound 7a, 1-(4-(3-Benzyl-3H-[1,2,3]triazolo[4,5-d]pyrimidin-7-yl)piperazin-1-yl)prop-2-en-1-one] | 12.0 ± 3.0 | – | – | – | – | –
Nc1ncnc2c1nnn2Cc1ccccc1 [Compound 4, 3-Benzyl-3H-[1,2,3]triazolo[4,5-d]pirimidin-7-amina] | 28.0 ± 9.2 | – | – | – | – | –
C=CC(=O)Nc1ccc(Sc2ncnc3c2nnn3Cc2ccccc2)cc1 [Compound 7d, N-(4-((3-Benzyl-3H-[1,2,3]triazolo[4,5-d]pyrimidin-7-yl)thio)phenyl)acrylamide] | 28.1 ± 2.8 | – | – | – | – | –
CC(=O)N1CCN(c2ncnc3c2nnn3Cc2ccccc2)CC1 [Compound 7b, 1-(4-(3-Benzyl-3H-[1,2,3]triazolo[4,5-d]pyrimidin-7-yl)piperazin-1-yl)etan-1-one] | 40.5 ± 14.8 | – | – | – | – | –
Cl.c1ccc(Cn2nnc3c(N4CCNCC4)ncnc32)cc1 [Compound 6, 3-Benzyl-7-(piperazin-1-yl)-3H-[1,2,3]triazolo[4,5-d]pyrimidine Hydrochloride] | 7.0 ± 3.2 | – | – | – | – | –
C=CC(=O)N1CCC(Nc2ncnc3c2nnn3Cc2ccccc2)CC1 [Compound 7c, 1-(4-((3-Benzyl-3H-[1,2,3]triazolo[4,5-d]pyrimidin-7-yl)amino)piperidin-1-yl)prop-2-en-1-one] | 41.2 ± 9.7 | – | – | – | – | no covalent binding
CC(C)(C)OC(=O)N1CCN(c2ncnc3c2nnn3Cc2ccccc2)CC1 [Compound 5, tert-Butyl 4-(3-benzyl-3H-[1,2,3]triazolo[4,5-d]pyrimidin-7-yl)piperazine-1-carboxylate] | 16.9 ± 8.2 | – | – | – | – | –
Oc1ncnc2c1nnn2Cc1ccccc1 [Compound 1, 3-benzyl-3H-[1,2,3]triazolo[4,5-d]pyrimidin-7-ol] | 0 | – | – | – | – | –

Now from value to molecule, other results behind:

% INHIBITION csNOX5 DEHYDROGENASE DOMAIN [1] [%] | IC50 (human NOX1) [µM] | IC50 (human NOX4) [µM] | IC50 (human NOX5) [µM] | IC50 (NOX2) [µM] | SMILES | covalent binding to csNOX5 dehydrogenase active-site cysteine (csNOX5 dehydrogenase)
– | > 100 | > 100 | 14.3 ± 5.9 | 12.9 ± 2.2 | CN(Cc1ccccc1)Cc1ccc(Cn2nnc3c(Sc4nc5ccccc5o4)ncnc32)cc1 [Compound 9c, N-(4-((7-(Benzo[d]oxazol-2-ylthio)-3H-[1,2,3]triazolo[4,5-d]pyrimidin-3-yl)methyl)benzyl)-N-methyl-1-phenylmethanamine] | –
– | > 100 | > 100 | > 100 | > 100 | CCCN(C)Cc1ccc(Cn2nnc3c(Sc4nc5ccccc5o4)ncnc32)cc1 [Compound 9b, N-(4-((7-(Benzo[d]oxazol-2-ylthio)-3H-[1,2,3]triazolo[4,5-d]pyrimidin-3-yl)methyl)benzyl)-N-methylpropan-1-amine] | –
– | > 100 | > 100 | 2.06 ± 0.96 | 1.9 ± 0.2 | c1ccc2oc(Sc3ncnc4c3nnn4Cc3ccc(CN4CCOCC4)cc3)nc2c1 [Compound 9e, 2-((3-(4-(Morpholinomethyl)benzyl)-3H-[1,2,3]triazolo[4,5-d]pyrimidin-7-yl)thio)benzo[d]oxazole] | –
– | > 100 | > 100 | 46.6 ± 9.1 | 13.8 ± 2.8 | FC1(F)CC2(CCN(Cc3ccc(Cn4nnc5c(Sc6nc7ccccc7o6)ncnc54)cc3)CC2)C1 [Compound 9f, 2-((3-(4-((2,2-Difluoro-7-azaspiro[3.5]nonan-7-yl)methyl)benzyl)-3H-[1,2,3]triazolo[4,5-d]pyrimidin-7-yl)thio)benzo[d]oxazole] | –
– | > 100 | > 100 | 4.72 ± 3.7 | 8.1 ± 0.2 | c1ccc2oc(Sc3ncnc4c3nnn4Cc3ccc(CN4CCCCC4)cc3)nc2c1 [Compound 9d, 2-((3-(4-(Piperidin-1-ylmethyl)benzyl)-3H-[1,2,3]triazolo[4,5-d]pyrimidin-7-yl)thio)benzo[d]oxazole] | –

Reference: publication PMC11956017, “Design of Benzyl-triazolopyrimidine-Based NADPH Oxidase Inhibitors Leads to the Discovery of a Potent Dual Covalent NOX2/MAOB Inhibitor” (Journal of Medicinal Chemistry, 2025)
